Our source for the IC50 values is ChEMBL document CHEMBL1134304, “Discovery of novel p-arylthio cinnamides as antagonists of leukocyte function-associated antigen-1/intercellular adhesion molecule-1 interaction. 4. Structure-activity relationship of substituents on the benzene ring of the cinnamide” (J Med Chem, 2001).

By IC50 is commonly meant the midpoint of a concentration-inhibition curve.

The target of experiment [1] is T1, Integrin alpha-L (Homo sapiens, UniProt P20701).
T1 sequence (P20701 whole entry): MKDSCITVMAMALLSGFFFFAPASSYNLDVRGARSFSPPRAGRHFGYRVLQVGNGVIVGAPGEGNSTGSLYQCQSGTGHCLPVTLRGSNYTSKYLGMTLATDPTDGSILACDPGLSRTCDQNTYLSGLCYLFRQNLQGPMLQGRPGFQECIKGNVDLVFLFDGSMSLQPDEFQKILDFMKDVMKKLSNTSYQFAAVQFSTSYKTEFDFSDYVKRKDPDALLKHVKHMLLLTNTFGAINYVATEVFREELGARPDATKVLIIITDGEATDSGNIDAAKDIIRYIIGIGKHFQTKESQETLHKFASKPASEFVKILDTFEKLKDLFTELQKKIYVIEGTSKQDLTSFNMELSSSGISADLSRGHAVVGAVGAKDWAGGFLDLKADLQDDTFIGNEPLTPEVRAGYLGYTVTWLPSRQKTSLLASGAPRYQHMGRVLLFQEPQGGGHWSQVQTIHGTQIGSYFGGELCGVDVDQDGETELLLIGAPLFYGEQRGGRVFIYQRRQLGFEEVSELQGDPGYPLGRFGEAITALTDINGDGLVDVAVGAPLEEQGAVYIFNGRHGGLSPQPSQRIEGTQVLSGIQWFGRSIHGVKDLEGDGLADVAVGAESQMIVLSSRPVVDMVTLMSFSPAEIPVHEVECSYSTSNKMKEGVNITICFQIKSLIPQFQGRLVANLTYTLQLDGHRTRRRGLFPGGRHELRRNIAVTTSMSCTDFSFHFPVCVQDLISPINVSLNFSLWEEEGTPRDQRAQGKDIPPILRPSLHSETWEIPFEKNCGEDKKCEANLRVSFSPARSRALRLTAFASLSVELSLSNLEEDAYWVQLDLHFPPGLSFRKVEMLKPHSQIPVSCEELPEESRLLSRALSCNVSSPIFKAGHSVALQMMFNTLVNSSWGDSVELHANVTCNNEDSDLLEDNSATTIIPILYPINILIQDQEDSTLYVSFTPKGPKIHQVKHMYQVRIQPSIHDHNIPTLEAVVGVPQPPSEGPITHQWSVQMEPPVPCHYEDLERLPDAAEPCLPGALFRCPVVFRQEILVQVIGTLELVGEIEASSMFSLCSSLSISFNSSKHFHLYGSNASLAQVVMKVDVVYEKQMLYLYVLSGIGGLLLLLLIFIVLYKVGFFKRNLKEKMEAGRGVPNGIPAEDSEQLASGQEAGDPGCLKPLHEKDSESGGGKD
The experiment can be described thus: Inhibition of intercellular adhesion molecule-1 (ICAM-1) binding to recombinant LFA-1.

The target of experiment [2] is T1, Integrin alpha-L. The experiment can be described thus: Inhibition of intercellular adhesion molecule-1 (ICAM-1) binding to recombinant LFA-1, range(140-150).
The target in experiment [3] is T1, Integrin alpha-L. Description: Inhibition of intercellular adhesion molecule-1 (ICAM-1) binding to recombinant LFA-1, range (3600-5100).
Experiment [4] addresses T2, Intercellular adhesion molecule (ICAM-1), Integrin alpha-L/beta-2 (Homo sapiens, UniProt P05107+P20701). The experiment can be described thus: Inhibition of LFA-1 mediated JY-8 cell adhesion to ICAM-1, range (100-600). The class given is functional, cell-based.
Experiment [5] addresses T1, Integrin alpha-L. The experiment can be described thus: Inhibition of intercellular adhesion molecule-1 (ICAM-1) binding to recombinant LFA-1, range(100-200).
Experiment [6] deals with T1, Integrin alpha-L. The experiment can be described thus: Inhibition of intercellular adhesion molecule-1 (ICAM-1) binding to recombinant LFA-1, range (260-270).
The target of experiment [7] is T2, Intercellular adhesion molecule (ICAM-1), Integrin alpha-L/beta-2. The experiment can be described thus: Inhibition of LFA-1 mediated JY-8 cell adhesion to ICAM-1, range (30-170). The class given is functional, cell-based.
In experiment [8] the target is T1, Integrin alpha-L. The experiment can be described thus: Inhibition of intercellular adhesion molecule-1 (ICAM-1) binding to recombinant LFA-1, range(50-60).
The target of experiment [9] is T1, Integrin alpha-L. The experiment can be described thus: Inhibition of intercellular adhesion molecule-1 (ICAM-1) binding to recombinant LFA-1, range(120-140).
The target of experiment [10] is T1, Integrin alpha-L.
Experiment [11] addresses T1, Integrin alpha-L. Description: Inhibition of intercellular adhesion molecule-1 (ICAM-1) binding to recombinant LFA-1, range (6-9).
The target in experiment [12] is T2, Intercellular adhesion molecule (ICAM-1), Integrin alpha-L/beta-2. The experiment can be described thus: Inhibition of LFA-1 mediated JY-8 cell adhesion to ICAM-1, range (2-9). Format: functional, cell-based.
Experiment [13] deals with T1, Integrin alpha-L. The experiment can be described thus: Inhibition of intercellular adhesion molecule-1 (ICAM-1) binding to recombinant LFA-1, range (5-8).
In experiment [14] the target is T2, Intercellular adhesion molecule (ICAM-1), Integrin alpha-L/beta-2. The experiment can be described thus: Inhibition of LFA-1 mediated JY-8 cell adhesion to ICAM-1, range (30-150). Format: functional, cell-based.
For experiment [15], the target named is T1, Integrin alpha-L. Description: Inhibition of intercellular adhesion molecule-1 (ICAM-1) binding to recombinant LFA-1, range(30-60).
Experiment [16] addresses T2, Intercellular adhesion molecule (ICAM-1), Integrin alpha-L/beta-2. The experiment can be described thus: Inhibition of LFA-1 mediated JY-8 cell adhesion to ICAM-1, range (3-10). Format: functional, cell-based.
For experiment [17], the target named is T1, Integrin alpha-L. Description: Inhibition of intercellular adhesion molecule-1 (ICAM-1) binding to recombinant LFA-1, range (6-10).
The target in experiment [18] is T1, Integrin alpha-L. The experiment can be described thus: Inhibition of intercellular adhesion molecule-1 (ICAM-1) binding to recombinant LFA-1, range (3700-3800).

T2 sequence (P05362 whole entry, one chain of several, further chain): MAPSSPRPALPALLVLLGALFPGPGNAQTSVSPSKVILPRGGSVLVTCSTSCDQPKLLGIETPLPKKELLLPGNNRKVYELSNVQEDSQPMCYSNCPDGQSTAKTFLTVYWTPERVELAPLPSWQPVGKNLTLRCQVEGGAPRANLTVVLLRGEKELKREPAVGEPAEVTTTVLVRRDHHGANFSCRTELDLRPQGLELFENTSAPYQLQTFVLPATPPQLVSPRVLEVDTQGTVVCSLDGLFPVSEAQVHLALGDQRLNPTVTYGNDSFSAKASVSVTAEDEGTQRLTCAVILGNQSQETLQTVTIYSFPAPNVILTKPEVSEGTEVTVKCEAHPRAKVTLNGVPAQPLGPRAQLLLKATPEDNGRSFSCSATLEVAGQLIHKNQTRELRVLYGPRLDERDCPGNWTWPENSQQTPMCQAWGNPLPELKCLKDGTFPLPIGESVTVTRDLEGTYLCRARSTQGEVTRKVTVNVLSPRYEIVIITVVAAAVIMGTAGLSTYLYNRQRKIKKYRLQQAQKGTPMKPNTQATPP
T2 sequence (P05107 whole entry, one chain of several): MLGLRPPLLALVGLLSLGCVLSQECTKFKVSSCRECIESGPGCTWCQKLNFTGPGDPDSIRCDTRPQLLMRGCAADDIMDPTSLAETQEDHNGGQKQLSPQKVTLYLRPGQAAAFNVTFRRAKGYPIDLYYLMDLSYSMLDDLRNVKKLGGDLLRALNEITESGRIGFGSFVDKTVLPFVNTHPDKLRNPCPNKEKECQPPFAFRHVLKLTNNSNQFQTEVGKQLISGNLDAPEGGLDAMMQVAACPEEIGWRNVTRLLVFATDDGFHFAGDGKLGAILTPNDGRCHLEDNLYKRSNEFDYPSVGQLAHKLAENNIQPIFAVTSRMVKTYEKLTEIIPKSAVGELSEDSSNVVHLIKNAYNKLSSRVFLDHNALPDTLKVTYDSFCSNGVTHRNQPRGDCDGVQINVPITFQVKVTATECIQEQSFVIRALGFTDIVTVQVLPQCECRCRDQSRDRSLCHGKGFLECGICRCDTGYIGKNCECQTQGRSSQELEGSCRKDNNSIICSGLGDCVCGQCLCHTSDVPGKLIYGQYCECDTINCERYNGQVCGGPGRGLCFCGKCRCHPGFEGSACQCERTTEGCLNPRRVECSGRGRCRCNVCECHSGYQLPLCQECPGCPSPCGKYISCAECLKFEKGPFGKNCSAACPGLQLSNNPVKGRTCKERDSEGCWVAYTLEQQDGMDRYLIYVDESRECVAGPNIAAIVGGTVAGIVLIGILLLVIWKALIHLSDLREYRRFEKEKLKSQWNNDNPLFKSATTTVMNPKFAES

Regarding `COc1ccccc1Sc1ccc(/C=C/C(=O)N2CCC(C(=O)O)CC2)c(C)c1`, the half-maximal inhibitory concentration (IC50) at Integrin alpha-L [1] is over 20000 nM.

`O=C(O)C1CCN(C(=O)/C=C/c2ccc(Sc3ccc4c(c3)OCCO4)c(Cl)c2)CC1`: on Integrin alpha-L [2], the concentration for half-maximal inhibition (IC50) is 145 nM.

With `CC(=O)N1CCN(C(=O)/C=C/c2ccc(Sc3ccc(Cl)cc3Cl)cc2)CC1`, the IC50 on Integrin alpha-L [3] turned out to be 4300 nM. As for `CC(=O)N1CCN(C(=O)/C=C/c2ccc(Sc3ccc(Cl)cc3Cl)c(Cl)c2)CC1`, the IC50 in experiment [4] came out at 130 nM; at Integrin alpha-L [5], 140 nM. With `COc1ccccc1Sc1ccc(/C=C/C(=O)N2CCC(C(=O)O)CC2)c(C(F)(F)F)c1`, on Integrin alpha-L [6], the IC50 turned out to be 265 nM.

With `CC(=O)N1CCN(C(=O)/C=C/c2ccc(Sc3ccc4c(c3)OCCO4)c(C(F)(F)F)c2)CC1`, the IC50 is 60 nM in [7] and 55 nM at Integrin alpha-L [8].

On to `O=C(/C=C/c1ccc(Sc2cccc(Cl)c2Cl)cc1)N1CCOCC1`, for which, on Integrin alpha-L [1], the IC50 was 9100 nM. Take `COc1ccccc1Sc1cc(Cl)c(/C=C/C(=O)N2CCC(C(=O)O)CC2)cc1Cl`: the IC50 on Integrin alpha-L [1] was over 20000 nM. For `CC(=O)N1CCN(C(=O)/C=C/c2ccc(Sc3ccc4c(c3)OCCO4)c([N+](=O)[O-])c2)CC1`, the IC50 on Integrin alpha-L [9] was 139 nM. On Integrin alpha-L [10], `O=C(/C=C/c1ccc(Sc2ccc3c(c2)OCCO3)c(C(F)(F)F)c1)N1CCOCC1` gave an IC50 of 30 nM.

For `O=C(O)C1CCN(C(=O)/C=C/c2ccc(Sc3ccc4c(c3)OCCO4)c(Cl)c2Cl)CC1`, the IC50 stood at 7 nM at Integrin alpha-L [11] and 6 nM in experiment [12]. In the case of `COc1ccccc1Sc1ccc(/C=C/C(=O)N2CCC(C(=O)O)CC2)c(C(F)(F)F)c1Cl`, the IC50 at Integrin alpha-L [13] is 6 nM; in experiment [12] it was 4 nM.

With `CC(=O)N1CCN(C(=O)/C=C/c2ccc(Sc3ccc4c(c3)OCCO4)c(Cl)c2)CC1`, the IC50 in experiment [14] came out at 80 nM; on Integrin alpha-L [15], 40 nM. As for `O=C(O)C1CCN(C(=O)/C=C/c2cc(Cl)c(Sc3ccc4c(c3)OCCO4)c(C(F)(F)F)c2)CC1`, the IC50 on Integrin alpha-L [1] was over 20000 nM.

Take `COc1ccccc1Sc1ccc(/C=C/C(=O)N2CCOCC2)c(C(F)(F)F)c1Cl`: the IC50 came out at 5 nM in experiment [16] and 8 nM at Integrin alpha-L [17]. As to `CC(=O)N1CCN(C(=O)/C=C/c2ccc(Sc3cccc(Cl)c3Cl)c(S(=O)(=O)N(C)C)c2)CC1`, at Integrin alpha-L [18], the IC50 was found to be 3750 nM.
